Experiments:
ACHN = assay: panel of 60 human tumor cell lines, growth inhibition (Renal Cancer); details: Homo sapiens
T-47D = assay: panel of 60 human tumor cell lines, growth inhibition (Breast Cancer); details: Homo sapiens, T47D
SNB-19 = assay: panel of 60 human tumor cell lines, growth inhibition (CNS Cancer); details: Homo sapiens
SF-268 = assay: as above; details: Homo sapiens
LOX IMVI = assay: panel of 60 human tumor cell lines, growth inhibition (Melanoma); details: Homo sapiens
SW-620 = assay: panel of 60 human tumor cell lines, growth inhibition (Colon Cancer); details: Homo sapiens; for GI50: SW-620, SW-620
MOLT-4 = assay: panel of 60 human tumor cell lines, growth inhibition (Leukemia); details: Homo sapiens
NCI-H226 = assay: panel of 60 human tumor cell lines, growth inhibition (Non-Small Cell Lung Cancer); details: Homo sapiens
SK-MEL-28 = assay: panel of 60 human tumor cell lines, growth inhibition (Melanoma); details: Homo sapiens
SNB-75 = assay: panel of 60 human tumor cell lines, growth inhibition (CNS Cancer); details: Homo sapiens
SF-295 = assay: as above; details: Homo sapiens
HS 578T = assay: panel of 60 human tumor cell lines, growth inhibition (Breast Cancer); details: Homo sapiens, Hs-578T
CAKI-1 = assay: panel of 60 human tumor cell lines, growth inhibition (Renal Cancer); details: Homo sapiens
SR = assay: panel of 60 human tumor cell lines, growth inhibition (Leukemia); details: Homo sapiens
HCC-2998 = assay: panel of 60 human tumor cell lines, growth inhibition (Colon Cancer); details: Homo sapiens
M14 = assay: panel of 60 human tumor cell lines, growth inhibition (Melanoma); details: Homo sapiens
UO-31 = assay: panel of 60 human tumor cell lines, growth inhibition (Renal Cancer); details: Homo sapiens

## C=C1C(=O)O[C@H]2[C@H]1CC/C(COC(=O)Nc1n[nH]c(SC)n1)=C\CC[C@@]1(C)O[C@@H]21 [JVM 64, ((1aR,7aS,10aS,10bS,E)-1a-methyl-8-methylene-9-oxo-1a,2,3,6,7,7a,8,9,10a,10b-decahydrooxireno[2′,3′:9,10]cyclodeca[1,2-b]furan-5-yl)methyl-(5-(methylthio)-1H-1,2,4-triazol-3-yl)carbamate]
ACHN
  GI50: 1.75 µM
ACHN; read-out: LC50
  CC50: 17.8 µM
ACHN; read-out: TGI
  IC (TGI): 4.89 µM
T-47D
  GI50: 2.23 µM
T-47D; read-out: LC50
  CC50: 70.9 µM
T-47D; read-out: TGI
  IC (TGI): 5.31 µM
SNB-19; SNB-19
  GI50: 15.9 µM
SNB-19; SNB-19, read-out: LC50
  CC50: > 100 µM
SNB-19; SNB-19, read-out: TGI
  IC (TGI): 40 µM
SF-268; SF-268
  GI50: 3.73 µM
SF-268; SF-268, read-out: LC50
  CC50: 52.6 µM
SF-268; SF-268, read-out: TGI
  IC (TGI): 14.7 µM
LOX IMVI; 5-dose assay
  GI50: 1.95 µM
LOX IMVI; NCI five dose
  GI50: 1.95 µM
LOX IMVI; read-out: LC50
  CC50: 19.8 µM
LOX IMVI; read-out: TGI
  IC (TGI): 5.03 µM
SW-620; 5-dose assay
  GI50: 1.12 µM
SW-620; NCI five dose
  GI50: 1.12 µM
SW-620; SW-620, read-out: LC50
  CC50: 8.49 µM
SW-620; SW-620, read-out: TGI
  IC (TGI): 3.09 µM
MOLT-4; MOLT-4
  GI50: 2.32 µM
MOLT-4; MOLT-4, read-out: LC50
  CC50: 88.5 µM
MOLT-4; MOLT-4, read-out: TGI
  IC (TGI): 6.59 µM
NCI-H226; NCI-H226
  GI50: 10.2 µM
NCI-H226; NCI-H226, read-out: LC50
  CC50: 99.7 µM
NCI-H226; NCI-H226, read-out: TGI
  IC (TGI): 31.9 µM
SK-MEL-28; SK-MEL-28
  GI50: 1.85 µM
SK-MEL-28; SK-MEL-28, read-out: LC50
  CC50: 17.9 µM
SK-MEL-28; SK-MEL-28, read-out: TGI
  IC (TGI): 4.86 µM
SNB-75; SNB-75
  GI50: 1.71 µM
SNB-75; SNB-75, read-out: LC50
  CC50: 33.4 µM
SNB-75; SNB-75, read-out: TGI
  IC (TGI): 10.1 µM
SF-295; SF-295
  GI50: 14.1 µM
SF-295; SF-295, read-out: LC50
  CC50: 64.1 µM
SF-295; SF-295, read-out: TGI
  IC (TGI): 30.1 µM
HS 578T
  GI50: 2.44 µM
HS 578T; read-out: LC50
  CC50: > 100 µM
HS 578T; read-out: TGI
  IC (TGI): 8.75 µM
CAKI-1; CAKI-1
  GI50: 1.99 µM
CAKI-1; CAKI-1, read-out: LC50
  CC50: 36.6 µM
CAKI-1; CAKI-1, read-out: TGI
  IC (TGI): 6.93 µM
SR
  GI50: 2.36 µM
SR; read-out: LC50
  CC50: > 100 µM
SR; read-out: TGI
  IC (TGI): 7.13 µM
HCC-2998; HCC 2998
  GI50: 7.63 µM
HCC-2998; HCC 2998, read-out: LC50
  CC50: 52.7 µM
HCC-2998; HCC 2998, read-out: TGI
  IC (TGI): 21.5 µM
M14; M14
  GI50: 1.59 µM
M14; M14, read-out: LC50
  CC50: 7.09 µM
M14; M14, read-out: TGI
  IC (TGI): 3.36 µM
UO-31; UO-31
  GI50: 1.98 µM
UO-31; UO-31, read-out: LC50
  CC50: 34 µM
UO-31; UO-31, read-out: TGI
  IC (TGI): 7.86 µM

From patent publication US9469650B2, “Melampomagnolide B derivatives” (BOARD OF TRUSTEES OF THE UNIVERSITY OF ARKANSAS, priority 2013, dated 2016)
